According to patent publication US8013006B2:

Tested on: HCV replicon
Assay: microbe, parasite or virus in culture
Type: cell-based
Conditions: Hepatitis C virus, 48 h, read-out: Replicon IC5Os μM

SMILES | IC50 [µM]
CC(=O)OCc1c(OC(C)=O)ccc2c([N+](=O)[O-])c(C)n(-c3ccc(C)cc3)c12 [Compound 1] | > 2

Same assay, conditions: Replicon IC50 values are determined by firefly luciferase signal; bicistronic replicon, 2 days; read-out: Replicon IC5Os

SMILES | IC50 [µM]
COc1ccc(-n2c(C)c([N+](=O)[O-])c3cc(CN(C)C)c(O)cc32)cc1 [Compound 3] | > 2
CC(C)n1cc(C#N)c2ccc(O)cc21 [Compound 6] | > 2
COc1ccc2c(C#N)cn(-c3ccc(C)c(C)c3)c2c1 [Compound 8] | 0.5 to 2
CCCCOc1ccc2c(C#N)cn(CC)c2c1 [Compound 11] | > 2
CCn1cc(C#N)c2ccc(OCc3ccccc3)cc21 [Compound 12] | 0.5 to 2
CCOC(=O)c1cn(CC)c2cc(OC)ccc12 [Compound 17] | > 2
CCn1cc(C#N)c2ccc(OC(F)F)cc21 [Compound 18] | > 2
CCn1c(-c2ccoc2)c(C#N)c2ccc(OC)cc21 [Compound 20] | > 2
CCn1c(-c2ccccc2)c(C#N)c2ccc(OC)cc21 [Compound 21] | > 2
CCn1cc(C#N)c2ccc(-n3cccc3)cc21 [Compound 27] | 0.5 to 2
CCn1cc(-c2noc(C3CC3)n2)c2ccc(OC)cc21 [Compound 29] | > 2
CCNc1c(C(=O)OC)c2ccc([N+](=O)O)cc2n1CC [Compound 30] | > 2
CCn1cc(C(=O)c2ccccc2)c2cc(OC)ccc21 [Compound 32] | > 2
CCn1cc(C(=O)c2ccccc2)c2ccc(OC)cc21 [Compound 33] | > 2
CCC(=O)c1cn(CC)c2cc(OC)ccc12 [Compound 34] | > 2
CCn1cc(C(=O)C(C)C)c2ccc(OC)cc21 [Compound 37] | > 2
CCn1cc(C(=O)c2cccc(OC)c2)c2ccc(OC)cc21 [Compound 38] | > 2
CCn1cc(C(=O)c2cccc(OC)c2)c2cc(OC)ccc21 [Compound 39] | > 2
COc1ccc(-c2c[nH]c3ccc([N+](=O)O)cc23)cc1 [Compound 40] | > 2

SMILES | IC50 [µM]
COc1ccc(-n2cc(C(C)=O)c3cc(OC)ccc32)cc1 [Compound 42, 1-[5-methoxy-1-(4-methoxyphenyl)-1-H-indol-3-yl]-ethanone] | > 2
CC(C)n1cc(C#N)c2cc3c(cc21)OCO3 [Compound 43] | > 2
CCOC(=O)c1c(C)n(-c2ccc(OC)cc2)c2cc(OC(F)F)ccc12 [Compound 46] | > 2
COc1ccc(-n2cc(C(=O)c3ccc(F)cc3)c3ccc(OC)cc32)cc1 [Compound 47] | > 2
N#Cc1cn(C(F)F)c2cc(OC(F)F)ccc12 [Compound 50] | > 2
CC(C)n1cc(C#N)c2cc3c(cc21)OCCO3 [Compound 52] | > 2
CCn1cc(-c2ccno2)c2ccc(C(=O)OC)cc21 [Compound 60] | > 2
CCn1cc(-c2ccn[nH]2)c2ccc(C(=O)OC)cc21 [Compound 61] | > 2
CCOC(=O)c1cn(CC)c2cc3c(cc12)OCO3 [Compound 62] | > 2
CCn1c(-c2ccc(C(C)(C)C)cc2)c(C#N)c2ccc(OC)cc21 [Compound 63] | > 2
CCn1c(C#Cc2ccccc2)c(C#N)c2ccc(OC)cc21 [Compound 64] | > 2
CCn1c(C#Cc2ccc(OC)cc2)c(C#N)c2ccc(OC)cc21 [Compound 65] | 0.5 to 2
CCn1c(C#Cc2cccc(OC)c2)c(C#N)c2ccc(OC)cc21 [Compound 66] | > 2
CCn1c(C#Cc2ccc(C)cc2)c(C#N)c2ccc(OC)cc21 [Compound 68] | 0.5 to 2
CCOc1ccc(-c2c(C#N)c3ccc(OC)cc3n2CC)cc1 [Compound 70] | > 2
CCn1c(-c2ccc(C(=O)N(C)C)cc2)c(C#N)c2ccc(OC)cc21 [Compound 71] | > 2
CCn1c(-c2ccc(OC)c(F)c2)c(C#N)c2ccc(OC)cc21 [Compound 74] | > 2
COc1ccc(-c2c(C#N)c3ccc(OC)cc3n2C)cc1 [Compound 76] | > 2
CCOc1ccc(-c2c(C#N)c3ccc(OC)cc3n2C)cc1 [Compound 77] | > 2
